Test results published in patent publication US7144710B2, “Method for detecting inflammation and inflammatory conditions” (Trustees of Dartmouth College, priority 2000, dated 2006).

Columns and labels:
[1] = test system: monocyte CD163 expression; experiment: CD163 expression on monocytes of cultured PBMCs, staining and flow cytometric analysis; format: cell-based, human; details: for increase of monocyte CD163 expression: PBMCs treated 24 hours, agent alone, 200 nM DEX, vs control media, p<0.01; for CD163 expression of cytokine given in combination with DEX over DEX treatment alone: PBMCs 24 hours
Method: To assess whether different cytokines could influence CD163 expression, freshly isolated PBMCs were cultured for 24 hours in the presence of various cytokines, 200 nM DEX (as a positive control for CD163 upregulation), or control media. The cells were then subjected to staining and flow cytometric analysis.
For cytokine treatment studies, isolated PBMCs were suspended in hepes buffered RPMI 1640/0.05% gentamicin/10% FBS at a concentration of 2.0×10^6 to 2.5×10^6 cells/ml and cultured in 96 well plates at 37° C. and 5% CO2 in the presence of various mediators (Table 1). Mononuclear cells were stained for flow cytometric analysis after 24 hours in culture unless otherwise indicated. This enhanced cell recovery because monocytes, which initially adhere to plastic vessels, transiently detach from culture wells at 24–48 hours.
All staining procedures were performed at 4 C. Briefly, cultured PBMCs were incubated with normal human IgG (6 mg/ml) to block Fc receptor-specific binding of mAbs and 30 μg/ml of the isotype control mAb P3 or a saturating amount of mAb MAC2-48 (20 μg/ml) for one hour. Cells were then washed and stained for one hour with 17.5 μg/ml FITC labeled goat F(ab=)2 anti-mouse Ig. The cells were again washed and fixed with 1% methanol free formalin.
Cell fluorescence of monocytes gated using forward and side scatter was analyzed using a Becton Dickenson FACScan (Franklin Lakes, N.J.). Mean fluorescence intensity (MFI) was calculated by subtracting the MFI of the P3 stained mononuclear cells from the MFI of the corresponding Mac 2-48 stained cells.

monocyte surface CD163 [2] = details: Droste et al. 1999; blocked by protease inhibitors; cited from earlier work
monocyte surface CD163 [3] = experiment: Shedding of monocyte surface CD163 in vitro; format: cell-based, human; details: for shedding of surface CD163 from cells pre-treated with glucocorticoids plus LPS: subsequent treatment with the agent
Method: Therefore, like PMA, LPS is capable of inducing CD163 shedding. LPS-induced shedding occurred even with monocytes that had been cultured for 48 hours in DEX and thus had 5- to 10-fold higher levels of surface CD163 than freshly isolated monocytes. […] This LPS-conferred resistance to subsequent LPS-induced shedding of CD163 is similar to reported endotoxin pre-conditioning for resistance to subsequent inflammatory insults.

CD163 expression = experiment: Monocytes cultured with LPS and/or DEX, immunofluorescence detection of surface CD163; format: cell-based, human; details: monocytes cultured with LPS alone
Method: In addition to testing the effects of cytokines in combination with glucocorticoids on levels of CD163, studies were performed to examine the effects of glucocorticoids in combination with lipopolysaccharide (LPS). […] However, when monocytes were cultured for 48 hours with DEX combined with LPS, their was a synergistic increase in CD163 expression, where the effect of DEX alone was increased by more than 2-fold when LPS treatment was added.

soluble CD163 in plasma = experiment: Soluble CD163 in plasma of healthy volunteers after LPS bolus infusion (ELISA); format: in vivo, human; details: 4 ng/kg bolus infusion of LPS
Method: In order to provide for use of CD163 as a biomarker of inflammation, a method for detection of CD163 in biological samples such as plasma was developed. The assay of detection is an ELISA assay using a CD163-specific antibody such as MAC2-158 or MAC2-48 as the CD163 capture antibody and the commercially available biotinylated antibody RM3/1 as the CD163 detection antibody. Briefly, plates were coated with purified MAC2-158 or MAC2-48 antibody and incubated overnight at 4 C. After washing, non-specific binding was blocked by adding blocking buffer to each plate well and incubating for 30 minutes at room temperature. […]
In order to more closely mimic the in vivo inflammatory response to infection in a more controlled setting than the cardiac patients described above, healthy volunteers were administered a 4 ng/kg bolus infusion of LPS and monitored the levels of soluble CD163 in plasma. […] Levels of CD163 in plasma were measured using the assay of the present invention. […] Changes in levels of known acute phase proteins, glucocorticoids, and pro- and anti-inflammatory cytokines were also monitored in order to determine if their levels correlated with the appearance of soluble CD163 in plasma. […]
ELISA plates were coated, 100 μl per well, with 5 μg/ml purified MAC2-158 (coating buffer of 0.1 M NaHCO30.5 M NaCl, adjusted to pH 8.4 with HCl). […] The plates were read on a spectrophotometer at […].

[4] = test system: CRP, TNFA, IL-6, IL-10, cortisol in plasma; experiment: Plasma acute phase proteins, glucocorticoids and cytokines of healthy volunteers after LPS bolus infusion; format: in vivo, human; details: post LPS administration
Method: In order to more closely mimic the in vivo inflammatory response to infection in a more controlled setting than the cardiac patients described above, healthy volunteers were administered a 4 ng/kg bolus infusion of LPS and monitored the levels of soluble CD163 in plasma. […] Plasma samples were taken at baseline (before administration of LPS), and then at various time points after LPS infusion up to 72 hours after infusion initiation. Levels of CD163 in plasma were measured using the assay of the present invention. […] In the one volunteer where levels had declined at […], levels remained elevated up to 4 hours before returning to baseline levels by 8 hours. Changes in levels of known acute phase proteins, glucocorticoids, and pro- and anti-inflammatory cytokines were also monitored in order to determine if their levels correlated with the appearance of soluble CD163 in plasma. […] Plasma levels of TNFA, IL-6 and IL-10, all known to be produced following LPS infusion, peaked at 1, 2, and 4 hours post LPS administration, respectively. […] Therefore, CD163 acts as an early signaling event in the inflammatory response cascade.

CD163 = experiment: Western blots of monocyte lysates; format: cell-based, human

**Q.** Which “increase of monocyte CD163 expression” value [1] does the source give for `C[C@@H]1C[C@H]2[C@@H]3CCC4=CC(=O)C=C[C@]4(C)[C@@]3(F)[C@@H](O)C[C@]2(C)[C@@]1(O)C(=O)CO` [DEX] here?
**A.** ~7 fold

**Q.** Which results are given for `CCCCCCCCCCCCCC(=O)O[C@@H]1[C@@H](C)[C@@]2(O)[C@@H](C=C(CO)C[C@]3(O)C(=O)C(C)=C[C@@H]23)[C@@H]2C(C)(C)[C@]12OC(C)=O` [PMA]?
**A.** shedding of surface CD163 from monocytes in culture (monocyte surface CD163 [2]): rapid shedding; shedding of surface CD163 from cells pre-treated with glucocorticoids plus LPS (monocyte surface CD163 [3]): remained sensitive

**Q.** Which “CD163 expression of cytokine given in combination with DEX over DEX treatment alone” value (“CD163 expression … over DEX treatment alone” below) [1] does the source give for GM-CSF here?
**A.** does not enhance CD163 expression

**Q.** With lipopolysaccharide [LPS] as the molecule, how does the “CD163 detected on monocyte surface” value (CD163 expression) read?
**A.** low levels of CD163

**Q.** And the “increase of soluble CD163 levels in plasma compared to baseline” value (soluble CD163 in plasma)?
**A.** ≤ 7 fold

**Q.** And the “time at which plasma cortisol began to increase” value [4]?
**A.** 4 h

**Q.** What about the “time by which plasma CRP increased” value [4] of the same molecule?
**A.** ≤ 8 h

**Q.** And the “time of peak of plasma CRP” value [4]?
**A.** 24 h

**Q.** What about the “time of peak of plasma IL-6” value [4] of the same molecule?
**A.** 2 h

**Q.** And the “time of peak of plasma IL-10” value [4]?
**A.** 4 h

**Q.** And the “time of peak of plasma TNFA” value [4]?
**A.** 1 h

**Q.** And the “time of peak of plasma cortisol” value [4]?
**A.** 6 h

**Q.** And the “time to shedding of monocyte surface CD163” value (monocyte surface CD163 [3]; in vitro)?
**A.** ≤ 2 h

**Q.** What about the “shedding of surface CD163 from cells pre-treated with glucocorticoids plus LPS” value (monocyte surface CD163 [3]) of the same molecule?
**A.** largely resistant to shedding

B1: IL-4: cytokine interleukin-4 (protein, UniProt P05112 25-153, looked up)
Interleukin-4: HKCDITLQEIIKTLNSLTEQKTLCTELTVTDIFAASKNTTEKETFCRAATVLRQFYSHHEKDTRCLGATAQQFHRHKQLIRFLKRLDRNLWGLAGLNSCPVKEANQSTLENFLERLKTIMREKYSKCSS
**Q.** With B1 as the molecule, how does the “CD163 expression … over DEX treatment alone” value [1] read?
**A.** does not enhance CD163 expression

B2: IL-10: cytokine, originally known as cytokine synthesis inhibitory factor (protein, UniProt P22301 19-178, looked up)
Interleukin-10: SPGQGTQSENSCTHFPGNLPNMLRDLRDAFSRVKTFFQMKDQLDNLLLKESLLEDFKGYLGCQALSEMIQFYLEEVMPQAENQDPDIKAHVNSLGENLKTLRLRLRRCHRFLPCENKSKAVEQVKNAFNKLQEKGIYKAMSEFDIFINYIEAYMTMKIRN
**Q.** Which “CD163 expression … over DEX treatment alone” value [1] does the source give for B2 here?
**A.** significantly increased CD163 expression

**Q.** And the “increase of monocyte CD163 expression” value [1]?
**A.** approximately 4 fold

**Q.** What about the “CD163 expression by western blot” value (CD163) of the same molecule?
**A.** increased expression of CD163
